Experimental data: PMC9516332 (Frontiers in Oncology, 2022)
Like-named read-outs stand apart in the source and are kept apart here.

Assays:
EGFR-mutant cell lines = assay: Cell viability assay, EGFR-mutant versus EGFR wild-type cell lines; type: cell-based; conditions: MANOVA
[1] = target: T1, panel of 255 wild-type kinases (Homo sapiens, UniProt Q9NWZ3); conditions: cited from earlier work
T1 sequence (Q9NWZ3 1-460): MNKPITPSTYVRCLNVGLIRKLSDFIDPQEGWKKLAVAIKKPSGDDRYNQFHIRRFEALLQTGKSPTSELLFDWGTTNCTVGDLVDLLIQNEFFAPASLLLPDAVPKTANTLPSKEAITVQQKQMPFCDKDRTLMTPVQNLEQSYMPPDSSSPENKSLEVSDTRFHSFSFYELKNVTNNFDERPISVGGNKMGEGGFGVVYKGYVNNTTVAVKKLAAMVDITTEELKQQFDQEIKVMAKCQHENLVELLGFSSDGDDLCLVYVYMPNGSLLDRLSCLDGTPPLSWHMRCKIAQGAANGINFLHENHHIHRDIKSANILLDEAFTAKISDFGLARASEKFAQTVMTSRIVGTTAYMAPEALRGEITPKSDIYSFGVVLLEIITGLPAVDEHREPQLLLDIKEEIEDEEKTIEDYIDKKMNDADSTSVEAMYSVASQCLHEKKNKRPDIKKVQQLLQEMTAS

[2] = target: T2, panel of 255 wild-type kinases (Homo sapiens, UniProt Q08881); conditions: cited from earlier work
T2 sequence (Q08881 1-620): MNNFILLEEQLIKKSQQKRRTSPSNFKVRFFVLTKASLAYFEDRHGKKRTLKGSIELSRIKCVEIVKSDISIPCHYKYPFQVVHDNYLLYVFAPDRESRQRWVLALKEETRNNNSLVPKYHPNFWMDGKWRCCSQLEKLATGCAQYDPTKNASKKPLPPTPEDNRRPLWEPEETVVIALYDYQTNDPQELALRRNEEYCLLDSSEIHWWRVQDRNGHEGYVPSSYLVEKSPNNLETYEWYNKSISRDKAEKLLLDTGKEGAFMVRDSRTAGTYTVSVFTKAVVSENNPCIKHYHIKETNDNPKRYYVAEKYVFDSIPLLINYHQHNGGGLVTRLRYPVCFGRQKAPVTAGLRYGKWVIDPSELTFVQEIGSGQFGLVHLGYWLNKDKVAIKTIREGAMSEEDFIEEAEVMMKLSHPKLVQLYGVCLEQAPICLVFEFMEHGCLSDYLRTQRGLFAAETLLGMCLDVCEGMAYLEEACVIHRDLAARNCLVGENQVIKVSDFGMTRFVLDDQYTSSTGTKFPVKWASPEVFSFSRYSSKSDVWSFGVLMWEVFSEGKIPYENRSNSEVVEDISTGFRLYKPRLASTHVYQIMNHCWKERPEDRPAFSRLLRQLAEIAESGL

[3] = target: panel of 255 wild-type kinases (Homo sapiens, UniProt P49840); conditions: cited from earlier work
[4] = target: panel of 255 wild-type kinases (Homo sapiens, UniProt Q14012); conditions: cited from earlier work
[5] = target: panel of 255 wild-type kinases (Homo sapiens, UniProt P49759); conditions: cited from earlier work
[6] = target: panel of 255 wild-type kinases (Homo sapiens, UniProt P50750); conditions: cited from earlier work
[7] = target: panel of 255 wild-type kinases (Homo sapiens, UniProt Q16512); conditions: cited from earlier work
[8] = target: panel of 255 wild-type kinases (Homo sapiens, UniProt P07948); conditions: cited from earlier work
[9] = target: panel of 255 wild-type kinases (Homo sapiens, UniProt Q16654); conditions: cited from earlier work
[10] = kinase IRAK4, 1 µmol/L single concentration, ref DOI: 10.1158/1535-7163.MCT-18-0877
[11] = kinase ITK, 1 µmol/L single concentration, ref DOI: 10.1158/1535-7163.MCT-18-0877
[12] = kinase GSK3α, 1 µmol/L single concentration, ref DOI: 10.1158/1535-7163.MCT-18-0877
[13] = CaMK1α kinase assay, 1 µmol/L single concentration, ref DOI: 10.1158/1535-7163.MCT-18-0877
[14] = kinase CLK1, 1 µmol/L single concentration, ref DOI: 10.1158/1535-7163.MCT-18-0877
[15] = CDK9/CycT1 kinase assay, 1 µmol/L single concentration, ref DOI: 10.1158/1535-7163.MCT-18-0877
[16] = kinase PKN1, 1 µmol/L single concentration, ref DOI: 10.1158/1535-7163.MCT-18-0877
[17] = kinase LYNa, 1 µmol/L single concentration, ref DOI: 10.1158/1535-7163.MCT-18-0877
[18] = kinase PDHK4, 1 µmol/L single concentration, ref DOI: 10.1158/1535-7163.MCT-18-0877
[19] = kinase ITK, 1 µmol/L single concentration, ref DOI: 10.1371/journal.pone.0092146
[20] = kinase CLK1, 1 µmol/L single concentration, ref DOI: 10.1371/journal.pone.0092146
[21] = kinase PKN1, 1 µmol/L single concentration, ref DOI: 10.1371/journal.pone.0092146
[22] = kinase PDHK4, 1 µmol/L single concentration, ref DOI: 10.1371/journal.pone.0092146

SMILES	%-inhibition at 1 µmol/L, IRAK4 [1, 10] [%]	%-inhibition at 1 µmol/L, ITK [2, 11] [%]	%-inhibition at 1 µmol/L, GSK3α [3, 12] [%]	%-inhibition CaMK1α [4, 13] [%]	%-inhibition at 1 µmol/L, CLK1 [5, 14] [%]	%-inhibition CDK9/CycT1 [6, 15] [%]	%-inhibition at 1 µmol/L, PKN1 [7, 16] [%]	%-inhibition at 1 µmol/L, LYNa [8, 17] [%]	%-inhibition at 1 µmol/L, PDHK4 [9, 18] [%]	further results
CC#CC(=O)N1CCC[C@H]1c1nc(-c2ccc(C(=O)Nc3ccccn3)cc2)c2c(N)nccn12 [acalabrutinib]	-6.55	0.871	2.47	-4.29	-8	15	11	2	0.391	preferential targeting of EGFR-mutant cell lines (EGFR-mutant cell lines): did not significantly target
CCc1cc2c(cc1N1CCC(N3CCOCC3)CC1)C(C)(C)c1[nH]c3cc(C#N)ccc3c1C2=O [alectinib]	19	–	4.36	2.11	43	-0.0188	13	32	1.7	–
COc1cc(N2CCC(N3CCN(C)CC3)CC2)ccc1Nc1ncc(Cl)c(Nc2ccccc2P(C)(C)=O)n1 [brigatinib]	–	–	–	–	–	–	–	–	–	%-inhibition at 1 µmol/L, IRAK4 [1]: 46%; %-inhibition at 1 µmol/L, ITK [2]: 95%; %-inhibition at 1 µmol/L, GSK3α [3]: 4%; %-inhibition CaMK1α [4]: 28%; %-inhibition at 1 µmol/L, CLK1 [5]: 100%; %-inhibition CDK9/CycT1 [6]: 5.35%; %-inhibition at 1 µmol/L, PKN1 [7]: 77%; %-inhibition at 1 µmol/L, LYNa [8]: 51%; %-inhibition at 1 µmol/L, PDHK4 [9]: 5%
Cc1cc(Nc2ncc(Cl)c(Nc3ccccc3S(=O)(=O)C(C)C)n2)c(OC(C)C)cc1C1CCNCC1 [ceritinib]	1.3	11	15	37	99	0.194	25	16	2.55	–
O=C(c1ccc(F)c(F)c1Nc1ccc(I)cc1F)N1CC(O)([C@@H]2CCCCN2)C1 [cobimetinib]	-4.31	4	3.42	9	-0.28	1.36	19	-1.81	-1.13	–
C[C@@H](Oc1cc(-c2cnn(C3CCNCC3)c2)cnc1N)c1c(Cl)ccc(F)c1Cl [crizotinib]	–	–	–	–	–	–	–	–	–	%-inhibition at 1 µmol/L, IRAK4 ([1]; kinase IRAK4, 1 µmol/L single concentration, ref DOI: 10.1371/journal.pone.0092146): 8%; %-inhibition at 1 µmol/L, ITK [2, 19]: 63%; %-inhibition at 1 µmol/L, GSK3α ([3]; kinase GSK3α, 1 µmol/L single concentration, ref DOI: 10.1371/journal.pone.0092146): -2.56%; %-inhibition CaMK1α ([4]; CaMK1α kinase assay, 1 µmol/L single concentration, ref DOI: 10.1371/journal.pone.0092146): 0.734%; %-inhibition at 1 µmol/L, CLK1 [5, 20]: 13%; %-inhibition CDK9/CycT1 ([6]; CDK9/CycT1 kinase assay, 1 µmol/L single concentration, ref DOI: 10.1371/journal.pone.0092146): 5%; %-inhibition at 1 µmol/L, PKN1 [7, 21]: 23%; %-inhibition at 1 µmol/L, LYNa ([8]; kinase LYNa, 1 µmol/L single concentration, ref DOI: 10.1371/journal.pone.0092146): 42%; %-inhibition at 1 µmol/L, PDHK4 [9, 22]: -3.76%
CC(C)(C)c1nc(-c2cccc(NS(=O)(=O)c3c(F)cccc3F)c2F)c(-c2ccnc(N)n2)s1 [dabrafenib]	–	–	–	–	–	–	–	–	–	%-inhibition at 1 µmol/L, ITK [2, 19]: 49%; %-inhibition at 1 µmol/L, CLK1 [5, 20]: 7%; %-inhibition at 1 µmol/L, PKN1 [7, 21]: -2.84%; %-inhibition at 1 µmol/L, PDHK4 [9, 22]: -1%
